In patent US12012390B2, “Flavone compounds for the treatment and prophylaxis of hepatitis B virus disease” (priority 2018, dated 2024):

How the values were obtained:
[1] = test system: HBeAg level (surrogate marker for cccDNA) in HepDES19 cells; assay: Engineered HepDES19 primary screen assay (HBeAg as surrogate marker for cccDNA); format: cell-based, HBV; settings: Hepatitis B virus, HepDES19, 120 h, read-out: IC50 (HBeAg) in HepDES19 primary screen assay, HepDES19 cells, 5 days incubation with compound, HBeAg by ELISA
How it was run: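 HepDES19 cells were induced by Tet withdrawal for 8 days, then exposed to half-log compound dilutions (1% DMSO) for 5 days at 37° C. HBeAg, a cccDNA surrogate, was measured by ELISA; viability by CCK-8. IC50 from 4-parameter logistic fit.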

[2] = test system: HBV in primary human hepatocytes (PHH); assay: Cryopreserved primary human hepatocytes (PHH) HBV infection assay; format: cell-based; settings: Hepatitis B virus, Hepatocyte, 216 h, HBV-infected cryopreserved PHH, 9 days post-compound treatment, extracellular HBsAg by CLIA; read-out: HBsAg IC50
Protocol: This assay is used to confirm the anti-HBV effect of the compounds in HBV PHH infection assay. Cryopreserved PHH (BioreclamationIVT, Lot YJM) was thawed at 37° C. and gently transferred into pre-warmed InVitroGRO HT medium (BioreclamationIVT, Cat. S03317). The mixture was centrifuged at 70 relative centrifugal force (RCF) for 3 minutes at RT, and the supernatant was discarded. Pre-warmed InVitroGRO CP medium (BioreclamationIVT, Cat #S03316) was added to the cell pellet to gently re-suspend cells. The cells were seeded at the density of 5.8×10^4 cells per well to collagen I coated 96-well plate (Gibco, Cat. A1142803) with the InVitroGRO CP medium. All plates were incubated at 37° C. with 5% CO2 and 85% humidity.
At 20 hours after plating, the medium was changed to PHH culture medium (Dulbecco's Modified Eagle Medium (DMEM)/F12 (1:1) (Gibco, Cat. 11320-033), 10% fetal bovine serum (Gibco Cat. 10099141), 100 U/mL penicillin, 100 μg/mL streptomycin (Gibco, Cat. 151401-122), 5 ng/mL human epidermal growth factor (Invitrogen Cat. PHG0311L), 20 ng/mL dexamethasone (Sigma, Cat. D4902) and 250 ng/mL human recombinant insulin (Gibco, Cat. 12585-014)). And the cells were incubated at 37° C. with 5% CO2 and 85% humidity for 4 hours. The medium was then changed to pre-warmed PHH culture medium containing 4% polyethylene glycol (PEG) MW8000 (Sigma, Cat. P1458-50ML) and 1% DMSO (Sigma, Cat. D2650). 5.8×10^6 genomic equivalents of HBV were added into the medium.
At 24 hours post-infection, the cells were gently washed with PBS and refreshed with PHH culture medium supplemented with 1% DMSO, and 0.25 mg/mL Matrix gel (Corning, Cat. 356237) at 200 μL per well. All plates were immediately placed in at 37° C. CO2 incubator.
24 hours later, serial dilutions of compounds made with DMSO were further diluted with the same culture medium (PHH culture medium supplemented with 1% DMSO and 0.25 mg/mL Matrix gel as described above) before they were added to the cells to reach desired final compound concentrations and 1% DMSO concentration. The medium containing the compounds were refreshed every three days.
At 9 days post-compound treatment, extracellular HBsAg level were measured with Chemiluminescence Immuno Assay (CLIA) kit (Autobio, HBsAg Quantitative CLIA). Extracellular HBV DNA was extracted by MagNA Pure 96 system (Roche) and then determined by quantitative PCR with the following primers and probe: […]
HBsAg IC50 and HBV DNA IC50 values were derived from the dose-response curve using 4 parameter logistic curve fit method. The compounds of formula (I) have HBsAg IC50<20 μM, particularly <1 μM; and HBV DNA IC50<50 μM. Test results of the compounds of this invention as well as the reference compounds in Cryopreserved PHH assay are given in Table 2 and Table 3.

SMILES | IC50 [1] [µM] | IC50 [2] [µM]
COc1cc(OCCOC2CC(C(=O)O)C2)ccc1-c1cc(=O)c2cccc(Cl)c2o1 (stereo not shown) [Example 50, 3-[2-[4-(8-chloro-4-oxo-chromen-2-yl)-3-methoxy-phenoxy]ethoxy]cyclobutanecarboxylic acid] | 1.78 | 10.2
CCOc1cc(OCCOC2CC(C(=O)O)C2)ccc1-c1cc(=O)c2cccc(Cl)c2o1 (stereo not shown) [Example 51, 3-[2-[4-(8-chloro-4-oxo-chromen-2-yl)-3-ethoxy-phenoxy]ethoxy]cyclobutanecarboxylic acid] | 0.86 | 0.94
O=C(O)C1CC(OCCOc2ccc(-c3oc4c(Cl)cccc4c(=O)c3Cl)cc2)C1 (stereo not shown) [Example 53, 3-[2-[4-(3,8-dichloro-4-oxo-chromen-2-yl)phenoxy]ethoxy]cyclobutanecarboxylic acid] | 22 | 4.01
O=c1c(O)c(-c2ccc(OCCO[C@H]3C[C@@H](C(=O)O)C3)cc2)oc2c(Cl)cccc12 [Example 55, Cis-3-[2-[4-(8-chloro-3-hydroxy-4-oxo-chromen-2-yl)phenoxy]ethoxy]cyclobutanecarboxylic acid] | 0.12 | 9.5
O=C(O)C1CC(OCCOc2ccc(-c3cc(=O)c4cccc(Cl)c4s3)cc2)C1 (stereo not shown) [Example 57, 3-[2-[4-(8-chloro-4-oxo-thiochromen-2-yl)phenoxy]ethoxy]cyclobutanecarboxylic acid] | 0.09 | 0.14
O=C(O)COCCOc1ccc(-c2cc(=O)c3cccc(Cl)c3s2)cc1 [Example 58, 2-[2-[4-(8-chloro-4-oxo-thiochromen-2-yl)phenoxy]ethoxy]acetic acid] | 0.52 | 0.57
O=C(O)C1CC(OCCOc2ccc(-c3oc4c(Cl)cc(F)cc4c(=O)c3OC(F)(F)F)cc2)C1 (stereo not shown) [Example 63, 3-[2-[4-[8-chloro-6-fluoro-4-oxo-3-(trifluoromethoxy)chromen-2-yl]phenoxy]ethoxy]cyclobutanecarboxylic acid] | 1.81 | 5.36
O=C(O)C1CC(OCCOc2ccc(-c3cc(=O)c4cc(C5CC5)cc(Cl)c4o3)cc2)C1 (stereo not shown) [Example 67, 3-[2-[4-(8-chloro-6-cyclopropyl-4-oxo-chromen-2-yl)phenoxy]ethoxy]cyclobutanecarboxylic acid] | 14.1 | 2.77
O=C(O)C1CC(OCCOc2ccc(-c3cc(=O)c4ccc(C(F)(F)F)c(Cl)c4o3)cc2)C1 (stereo not shown) [Example 69, 3-[2-[4-[8-chloro-4-oxo-7-(trifluoromethyl)chromen-2-yl]phenoxy]ethoxy]cyclobutanecarboxylic acid] | 10.7 | 2.01
Cc1cc(-c2cc(=O)c3ccc(C(F)(F)F)c(Cl)c3o2)ccc1OCCOC1CC(C(=O)O)C1 (stereo not shown) [Example 72, 3-[2-[4-[8-chloro-4-oxo-7-(trifluoromethyl)chromen-2-yl]-2-methyl-phenoxy]ethoxy]cyclobutanecarboxylic acid] | 14.4 | 7.41
O=c1cc(-c2ccc(OCCO[C@H]3C[C@@H](C(=O)O)C3)c(Cl)c2)oc2c(Cl)c(C(F)(F)F)ccc12 [Example 73, Cis-3-[2-[2-chloro-4-[8-chloro-4-oxo-7-(trifluoromethyl)chromen-2-yl]phenoxy]ethoxy]cyclobutanecarboxylic acid] | 15.4 | 6.77
COc1ccc(-c2cc(=O)c3cc(OC)ccc3o2)cc1 [Example F-1, 6,4′-dimethoxyflavone, reference compound] | > 50 | 61.7
COc1ccc(-c2cc(=O)c3ccccc3o2)cc1 [Example F-2, 4′-methoxyflavone, reference compound] | 16.3 | 46.5
COc1ccc2c(=O)c(-c3ccc(C(=O)O)cc3)coc2c1 [Example F-3, 4-(7-methoxy-4-oxo-chromen-3-yl)benzoic acid, reference compound] | > 50 | > 100
